Test results reported in patent US20250207131A1, “MODIFIED RNA AGENTS WITH REDUCED OFF-TARGET EFFECT” (Alnylam Pharmaceuticals, Inc., priority 2018, published 2025).
In the oligonucleotide strings, read from the 5' end, every base follows the letter of its sugar. An asterisk marks phosphorothioate; unmarked linkages are phosphodiester. Other units and linkages are bracketed, terminal groups are in braces. A string of capitals states the bases alone. [5'S-Me-N] = (S)-5'-C-methyl nucleoside (N: the base); d = 2'-deoxy (DNA); r = 2'-OH (RNA)

Assays:
phosphodiesterase II = assay: Stability toward 5′-specific exonuclease (phosphodiesterase II); type: in vitro ADME; details: oligo 0.1 mg/mL, 50 mM NaOAc (pH 6.5), 10 mM MgCl2; for Half-lives (T1/2), ty2: Phosphodiesterase-II 500 mU/mL; for Half-lives (T1/2), t12: reduced Phosphodiesterase-II concentration 100 mU/mL
Procedure: Stability of modified oligonucleotides toward 3′- or 5′-specific exonucleases: Oligonucleotides were prepared in a final concentration of 0.1 mg/mL in either 50 mM Tris (pH 7.2), 10 mM MgCl2 or 50 mM sodium acetate (pH 6.5), 10 mM MgCl2 for assessing the stability towards 3′- or 5′-specific exonucleases, respectively. The exonuclease (150 mU/mL SVPDE for 3′-stability or 500 mU/mL phosphodiesterase II for 5′-stability) was added immediately prior to analysis via IEX HPLC (dionex DNAPac PA200, 4×250 mm) using a gradient of 37-52% mobile phase (1 M NaBr, 20 mM sodium phosphate, pH 11, 15% MeCN; stationary phase: 20 mM sodium phosphate, 15% MeCN, pH 11) over 7.5 min with a flow of 1 mL/min. Samples were analyzed at given time points for up to 24 h. The quantity of full length oligonucleotides was determined as the area under the curve at A260. Percent full length oligonucleotides was calculated by dividing by the area under the curve at t=0 and multiplying by 100. Activity of enzyme was verified for each experiment by including a oligodeoxythymidylate with a terminal phosphorothioate linkage (5′-T19·T (SEQ ID NO: 708) or 5′-T·T19 (SEQ ID NO: 708) for 3′- or 5′-exonuclease activity, respectively). Each aliquot of enzyme was thawed just prior to the experiment. The half-life was determined by fitting to first order kinetics.
5′-Nuclease Stability:_To evaluate the 5′-exonuclease stability of enantiomerically pure (R)- and (S)-5′-C-methyl (C5′-Me) Guanosine substituted nucleosides a dT20 template sequence (“dT20” disclosed as SEQ ID NO: 1) was modified at the 5′-end with one modified nucleotide via PO or PS linkages (Table 13). The structures of the compounds are shown below with guanosine for comparison.
A dT20 template (“dT20” disclosed as SEQ ID NO: 1) having 5′end dT with PS linkages and 5′end Guanosine (G) with either PO or PS linkages were used as the control. ONs were incubated with Phosphodiesterase-II (500 mU/mL), and the half-life (T½) of each modified ON was determined by HPLC-based quantification of the full-length ON as a function of time. The results are summarized in Table 13 and HPLC stability profiles are depicted in FIGS. 24A and 24B showing decay curve of dT20 (SEQ ID NO: 1) modified at the 5′ end with Guanosine and (R) or (S)-5′-C-methyl Guanosine (C5′-MeG) with PO or PS linkages upon incubation with 5′ exonucleases-phosphodiesterase-II as a function of time. FIG. 24A is for the following conditions: a) enzyme conc. 500 mU/mL, Oligo Conc. 0.1 mg/mL, 50 mM NaOAc (pH-6.5):10 Mm MgCl2. FIG. 24B is for the following conditions: enzyme conc. 100 mU/mL, Oligo Conc. 0.1 mg/mL, 50 mM NaOAc (pH-6.5):10 mM MgCl2. The percentage full length ON is calculated by dividing the area under the peak corresponding to full length ON at a given time point by the full length at t=0 and multiplied by 100.
Stability of modified oligonucleotides toward 3′- or 5′-specific exonucleases: Modified oligonucleotides were prepared in a final concentration of 0.1 mg/mL in either 300 mM Tris (pH 7.2), 60 mM MgCl2 or 300 mM sodium acetate (pH 6.5), 60 mM MgCl2 for assessing the stability towards 3′- or 5′-specific exonucleases, respectively. […] Samples were analyzed at given time points for up to 24 h. The quantity of full length oligonucleotides was determined as the area under the curve at A260. Percent full length oligonucleotides was calculated by dividing by the area under the curve at t=0 and multiplying by 100. […]

[1] = test system: luciferase reporter plasmids (psiCHECK2, Renilla luciferase fused to target sequence); assay: Off-target Dual-Glo luciferase reporter assay in COS-7 cells; type: cell-based; details: luciferase reporter plasmids co-transfected with siRNAs into COS-7 cells
Procedure: Dual-Glo® Luciferase assay: Cos7 cells (ATCC, Manassas, VA) were grown to near confluence at 37° C. in an atmosphere of 5% CO2 in DMEM (ATCC) supplemented with 10% FBS, before being released from the plate by trypsinization. siRNA and psiCHCECK2 plasmid transfection was carried out by adding 5 μL of siRNA duplexes and 5 μL of psiCHECK2 plasmid per well along with 5 μL of Opti-MEM plus 0.1 μL of Lipofectamine 2000 per well (Invitrogen, Carlsbad CA. cat #13778-150) and then incubated at room temperature for 15 minutes. The mixture was then added to the cells which were re-suspended in 35 ul of fresh complete media. The transfected cells were incubated at 37° C. in an atmosphere of 5% CO2.
48 hours after the siRNAs and psiCHECK2 plasmid were transfected; Firefly (transfection control) and Renilla (fused to target sequence) luciferase were measured. First, media was removed from cells. Then Firefly luciferase activity was measured by adding 20 μL of Dual-Glo® Luciferase Reagent equal to the culture medium volume to each well and mix. The mixture was incubated at room temperature for 30 minutes before luminescence (500 nm) was measured on a Spectramax (Molecular Devices) to detect the Firefly luciferase signal. Renilla luciferase activity was measured by adding 20 μL of room temperature of Dual-Glo® Stop & Glo® Reagent was added to each well and the plates were incubated for 10-15 minutes before luminescence was again measured to determine the Renilla luciferase signal. The Dual-Glo® Stop & Glo® Reagent, quenches the firefly luciferase signal and sustained luminescence for the Renilla luciferase reaction. siRNA activity was determined by normalizing the Renilla signal to the Firefly (control) signal within each well. The magnitude of siRNA activity was then assessed relative to cells that were transfected with the same vector but were not treated with siRNA or were treated with a non-targeting siRNA. All transfections were done at n=2 or greater.

[2] = Rat toxicity study, clinical pathology parameters; details: rats, single subcutaneous dose 30 mg/kg, cohort average
TTR = assay: In vitro on-target activity, primary mouse hepatocytes, transfection, RT-qPCR (TTR siRNAs); type: cell-based
Procedure: Cell culture and transfections: Primary Mouse Hepatocytes (Thermo Fisher Scientific/Gibco) were transfected by adding 4.9 μL of Opti-MEM plus 0.1 μL of Lipofectamine RNAiMax per well (Invitrogen, cat #13778-150) to 5 μL of siRNA duplexes per well into a 384-well plate and incubated at room temperature for 15 minutes. 40 μL of Dulbecco's Modified Eagle Medium (Hep3b) or William's Medium (PMH) containing ˜5 ×10^3 cells were then added to the siRNA mixture. Cells were incubated for 24 hours at 37° C. and then processed for RNA purification. Experiments were performed at 10 nM and 0.1 nM doses of siRNA.
Total RNA isolation using DYNABEADS mRNA Isolation Kit: RNA was isolated using an automated protocol on a BioTek-EL406 platform using DYNABEADs (Invitrogen, cat #61012). Briefly, 70 μL of Lysis/Binding Buffer and 10 μL of lysis buffer containing 3 μL of magnetic beads were added to each well. Plates were incubated on an electromagnetic shaker for 10 minutes at room temperature and then magnetic beads were captured and the supernatant was removed. Bead-bound RNA was then washed 2 times with 150 μL Wash Buffer A and once with Wash Buffer B. Beads were then washed with 150 μL Elution Buffer, re-captured and supernatant removed.
cDNA synthesis using ABI High capacity cDNA reverse transcription kit (Applied Biosystems, cat #4368813): 12 μL of a master mix containing 1.2 μL 10× Buffer, 0.48 μL 25× dNTPs, 1.2 μL 10× Random primers, 0.6 μL Reverse Transcriptase, 0.6 μL RNase inhibitor and 7.92 μL of H2O per reaction was added to RNA isolated above. Plates were sealed, mixed, and incubated on an electromagnetic shaker for 10 minutes at room temperature, followed by 2 h 37° C.
Real time PCR: 2 μL of cDNA were added to a master mix containing 2 μL water, 0.5 μL of either an appropriate GAPDH TaqMan VIC Probe or the target probe and 5 μL Lightcycler 480 probe master mix (Roche, cat #04887301001) per well in a 384 well plate (Roche, cat #04887301001). Real time PCR was done in a LightCycler480 Real Time PCR system (Roche). Each duplex was tested in quadruplicate and data were normalized to cells transfected with a non-targeting control siRNA. To calculate relative fold change, real time data were analyzed using the ΔΔCt method and normalized to assays performed with cells transfected with a non-targeting control siRNA.
RT qPCR for Ttr mRNA quantification:_Primary mouse hepatocytes (PMH) were cultured in Williams E Medium with 10% fetal bovine serum. Transfection of cells using RNAiMAX reagent was done as per the manufacturer's recommended protocol. Thus, cells were thawed immediately prior to transfection and then plated onto 384-well plates with a seed density of ˜5000 cells/well. Pre-incubated lipid/siRNA complex (0.1 μL RNAiMax, siRNA, in 5 μL Opti-MEM for 15 min) was added to a 384-well collagen-coated plate (BioCoat; Corning) and cells were incubated for 20 h at 37° C. in an atmosphere of 5% CO2. Eight 6-fold serial dilutions ranging from 10 to 0.036 nM were used to perform dose response experiments. Media was removed before washing and lysing the cells. Using Dynabeads mRNA isolation kit according to manufacturer's protocol, RNA was extracted and subsequently reverse-transcribed with the ABI high capacity cDNA reverse transcription kit. Quantification was done by real-time PCR, whereby the cDNA (2 μL) was added to a master mix that contained 0.5 μL mouse Gapdh TaqMan Probe, 0.5 μL Ttr TaqMan probes, and 5 μL Lightcycler 480 probe master mix per well in a 384-well 50 plate. Real-time PCR was accomplished in an ABI 7900HT RT-PCR system using the ΔΔCt (RQ) assay. Each duplex and concentration was tested in four biological replicates. To calculate relative fold change, real time data were analyzed using the ΔΔCt method and normalized to assays performed with cells transfected with 10 nM nonspecific siRNA. IC50 values were calculated using a 4-parameter fit model using XLFit.

## GpodT19: G(dT)19, 5′ guanosine, PO linkage (DNA rGdTdTdTdTdTdTdTdTdTdTdTdTdTdTdTdTdTdTdT)
Phosphodiesterase II
  Half-lives (T1/2), ty2: <1 h
  Half-lives (T1/2), t12: <1 h

## GpsdT19: Gs(dT)19, 5′ guanosine, PS linkage (DNA rG*dTdTdTdTdTdTdTdTdTdTdTdTdTdTdTdTdTdTdT)
Phosphodiesterase II
  Half-lives (T1/2), ty2: 41 h

## Parent (AD-64958): TTR siRNA; passenger a•a•caguGuUCUugcucuauaa(L), guide u•U•auaGagcaagaAcAcuguu•u•u (sense CAGUGUUCUUGCUCUAUAA; antisense AUAGAGCAAGAACACUGUU; phosphorothioate ends, overhangs, chemistry not fully specified)
[1]; TTR (Seq 2)
  IC50: 0.05 nM
[2]
  A/G Avg.: 1.3
  ALB Avg.: 2.9 g/dL
  ALP Avg.: 427 U/L
  ALT Avg.: 108 U/L
  AST Avg.: 332 U/L
  BILI Avg.: 0.48 mg/dL
  CA Avg.: 9.9 mg/dL
  CHOL Avg.: 43 mg/dL
  CREAT Avg.: 0.21 mg/dL
  GLDH Avg.: 140.8 U/L
  GLOB Avg.: 2.27 g/dL
  GLUC Avg.: 124 mg/dL
  K Avg.: 4.9 mmol/L
  NA Avg.: 140 mmol/L
  PHOS Avg.: 9.0 mg/dL
  PROT Avg.: 5 g/dL
  TRIG Avg.: 51 mg/dL
  UREAN Avg.: 18.6 mg/dL
TTR; TTR (Seq 2), primary mouse hepatocytes, 0.1 nM siRNA
  On-Target mRNA remaining (%) 0.1 nM siRNA: 25.5%
TTR; TTR (Seq 2), primary mouse hepatocytes, 10 nM siRNA
  On-Target mRNA remaining (%) 10 nM siRNA: 2.3%

## Parent (AD-125773): TTR siRNA; passenger u•u•cuugCuCUAuaaaccgugu(L), guide a•C•acgguuuauagAgCaagaa•c•a (sense CUUGCUCUAUAAACCGUGU; antisense ACGGUUUAUAGAGCAAGAA; phosphorothioate ends, overhangs, chemistry not fully specified)
[1]; TTR-4, modification at antisense position 7
  IC50: 1.21 nM
TTR; TTR-4, modification at antisense position 7, primary mouse hepatocytes
  IC50: 0.136 nM

## SpodT19: (G5m)(dT)19, 5′-end (S)-5′-C-methyl guanosine, PO linkage ([5'S-Me-G]dTdTdTdTdTdTdTdTdTdTdTdTdTdTdTdTdTdTdT)
Phosphodiesterase II
  Half-lives (T1/2), ty2: <1 h
  Half-lives (T1/2), t12: <1 h
